In data set [1] the test system is anxiety-like behaviors in mice. The data set can be described thus: Elevated plus maze (EPM) test of exploration behavior. From the text:
An elevated plus maze (EPM) apparatus (FIG. 1) was used to assess anxiety-like behaviors in mice administered with any of the test drugs. The EPM apparatus is a plus-shaped maze apparatus with open and closed arms and is used for assessment of anxiety-like behaviors of animals. Animals administered with a benzodiazepine (BZD) anxiolytic drug are known to increase the ratio of time spent in the open arm and the ratio of open arm entries. The EPM test is the most representative test available as a system for evaluating an anxiolytic drug.
Mice were acclimated to the testing laboratory for 60 minutes, and a prepared test drug was then administered to each mouse at a dose of 0.25 mL/20 g. After the elapse of a predetermined period of time from the administration of the drug, the EPM apparatus was used to quantify exploration behavior of the mouse for 5 minutes. The equations below were used to evaluate the effects of each test drug on exploration behavior in mice. Statistical analysis was performed with Dunnett's multiple comparison test, and a significant difference was considered at P<0.05. Time spent in open arm (%)−Time spent in open arm (sec)/{Time spent in open arm (sec)+Time spent in closed arm (sec)}×100 Open arm entry (%)−Open arm entries (times)/{Open arm entries (times)+Closed arm entries (times)}×100 Total arm entries (times)=Open arm entries (times)+Closed arm entries (times) 2.
Disulfiram was administered intraperitoneally to mice (n=8 per group) at a dose of 20, 40, or 80 mg/kg, and the mice were tested 30 minutes after the administration for their exploration behavior by using the EPM apparatus. As a positive control experiment, diazepam, a BZD anxiolytic drug, was administered subcutaneously to mice at a dose of 1.5 mg/kg (equivalent to the dose used clinically for humans), and the mice were similarly tested for their exploration behavior by using the EPM apparatus. A solution of 2% Tween 80, 10% DMSO, and 88% corn oil was administered intraperitoneally to mice in the solvent control group.
Disulfiram was administered to mice (n=8 per group) at a dose of 40 mg/kg, and the mice were tested 15, 30, 60, or 120 minutes after the administration for their exploration behavior by using the EPM apparatus.
Cyanamide was investigated for the presence of an anxiolytic-like effect. Cyanamide or disulfiram was administered to mice (n=6 per group) at a dose of 80 or 40 mg/kg, respectively, and the mice were tested 30 minutes after the administration for their exploration behavior by using the EPM apparatus.
The iron(III) complex of diethyldithiocarbamate (DDC) (Fe(DDC)3) as a disulfiram (DSF)-related compound was investigated for the presence of an anxiolytic-like effect. Each drug was administered intraperitoneally to mice in the Fe(DDC)3 dose group (n=5) and the DDC dose group (n=4) at a dose of 40 mg/kg. A solution of 2% Tween 80, 10% DMSO, and 88% corn oil was administered intraperitoneally to mice in the solvent control group (n=9). Thirty minutes after the administration, the elevated plus maze test was performed for 5 minutes.
The copper complex of DDC (Cu(DDC)2) as a DSF-related compound was investigated for the presence of an anxiolytic-like effect. Cu(DDC)2 was administered orally to mice (n=4) at a dose of 40 mg/kg. A solution of 2% Tween 80, 10% DMSO, and 88% corn oil was administered orally to mice in the solvent control group (n=4). Sixty minutes after the administration, the elevated plus maze test was performed for 5 minutes.

The test system of data set [2] is object recognition function in mice. As to the kind of experiment: Novel object location task (NOL), memory retrieval task. The format is in vivo, Male C57BL/6J mice. As to conditions: DSF diet (0.8 mg DSF per 1 g diet) for 3 weeks; p<0.05 (FIG. 8). As to the method:
To 1 g of an MF diet, 0.8 mg of DSF and 50 mg of sucrose or only 50 mg of sucrose (without DSF) were added to prepare a DSF diet or a control diet, respectively, as a solid diet. The novel object location task (NOL) was conducted to assess object recognition function in mice administered with any of the test drugs. The NOL is a test used to evaluate the ability to remember the location of an object (Dix, S. L. & Aggleton, J. P., Behav Brain Res: 1999 March; 99(2): 191-200). Mice were placed in a 33 cm square white box (open field: OF) and allowed to explore the white box freely for 10 minutes every day in the period of 3 days (acclimation). On Day 4, two objects with the same shape were placed in the OF apparatus, and the mice were allowed to learn the locations of the objects (FIG. 8; learning). On Day 5, one of the objects was relocated to a location that was different from the original location during the learning tasks, and the mice were allowed to explore the objects for 5 minutes, and the length of time spent exploring the objects was measured (FIG. 8; memory retrieval task). […] In the NOL memory retrieval task, the length of time spent exploring each object was measured to evaluate the effect of each test drug on the cognitive ability of the mice.

For data set [3], the system named is wild-type APP-transfected cells. As to conditions: in vitro, cultured cells; data of Patent Document 3; cited from earlier work.
In data set [4] the test system is mouse models of depression (SDS models). The data set can be described thus: Social interaction (SI) test after social defeat stress (SDS models). The format is in vivo, C57BL/6J mice. As to conditions: DSF diet freely for 3 months, then SDS for 10 days; control group SI time significantly decreased (FIG. 11). How it is done: To 1 g of an MF diet, 0.8 mg of DSF and 50 mg of sucrose or only 50 mg of sucrose (without DSF) were added to prepare a DSF diet or a control diet, respectively, as a solid diet. C57BL/6J mice were allowed to eat the DSF diet (200 mg/day) freely for 3 months and then exposed to social defeat stress (SDS) for 10 days to create mouse models of depression (SDS models) (Golden S. A. et al., Nat Protoc. Vol. 6, No. 8, pp. 1183-1191, 2011). The SDS models were created by placing a single C57BL/6J mouse in a home cage where a male ICR mouse had been housed for a long period of time and exposing the mouse to physical aggression by the ICR mouse. In this study, the stress exposure was applied for 10 minutes a day in a period of consecutive 10 days. Depressive-like symptoms were evaluated by the social interaction (SI) test (Golden S. A. et al., 2011, supra). An apparatus composed of an open field apparatus (45 cm×45 cm×30 cm) and a mesh cage (8 cm×6 cm×30 cm) placed on one side of the open field apparatus was used to perform the SI test, in which the time (SI time) spent by the C57BL/6J mouse approaching and making contact with the ICR mouse (Target) in the mesh cage during the measurement time (2.5 minutes) was compared with that in the absence of the ICR mouse (Non-target).

Data set [5] concerns hyperemotional response and hyperactivity in mice. As to the kind of experiment: Hyperemotional response and hyperactivity after chronic administration. As to conditions: DSF diet freely for 3 months. The format is in vivo, ICR mice. How it is done:
To 1 g of an MF diet, 0.8 mg of DSF and 50 mg of sucrose or only 50 mg of sucrose (without DSF) were added to prepare a DSF diet or a control diet, respectively, as a solid diet. ICR mice were allowed to eat the DSF diet (200 mg/day) freely for 3 months to assess hyperemotional response and hyperactivity. Hyperemotional response was evaluated in those mice according to the method of Kelly et al., (Kelly, J. P. et al., Pharmacol. Ther. Vol. 74, No. 3, pp. 299-316, 1997) by individually scoring (A) the response to an object placed in front of the nose, (B) the response to air blown thereon, or (C) the resistance to handling, based on the following criteria of emotional responses: • 0: no response; • 1: interest in the object, or only a slight movement, or easy to handle; • 2: protective or evasive actions against the object, or expression of surprise, or nervous but still easy to handle; • 3: aggressive actions such as biting, or clear expression of surprise, or nervous and difficult to handle; • 4: highly aggressive actions, or expression of surprise with jumping, or quite difficult to handle. The hyperactivity of each mouse was measured over a period of 30 seconds by counting the number of times the mouse crossed the lines that divided the floor of a cage to four areas.

Data set [6] deals with spatial learning ability in mice. The data set can be described thus: Morris water maze task (WM). The format is in vivo, Male C57BL/6J mice. To be noted: DSF diet for 4 weeks. How it is done:
To 1 g of an MF diet, 0.8 mg of DSF and 50 mg of sucrose or only 50 mg of sucrose (without DSF) were added to prepare a DSF diet or a control diet, respectively, as a solid diet. Next, the Morris water maze task (WM) was conducted to assess spatial learning ability in mice administered with any of the test drugs. The WM is widely used for assessing spatial learning and memory in mice (Morris, R. G. M., Learning and Motivation: 1981, 12, 239-260). A WM apparatus was a circular pool of 120 cm in diameter, filled with white-colored water and equipped with a submerged platform (PF) on which a mouse was allowed to stand and rest. Mice were allowed to swim from a randomly selected starting point in the pool, and the distance spent swimming before reaching the hidden platform was measured (FIG. 9A). […] Thus, the spatial learning ability can be assessed based on the distance traveled to find the platform. […] The effect of a test drug on spatial memory formation was evaluated from the ratio of time spent exploring the area at each probe trial after the platform was removed from the original location. […] At the WM learning trials, the distance spent swimming before reaching the platform was measured every day to evaluate the effect of each test drug on the spatial learning of the mice. Moreover, the effect of each test drug on the spatial memory formation in the mice was evaluated at the probe trials.

Where [7] appears, read: 80 mg/kg, 30 minutes after administration (FIG. 5).
[8] abbreviates: intraperitoneal 40 mg/kg, 30 minutes, two mice with no sedative effect (FIG. 6).
Where [9] appears, read: subcutaneous 1.5 mg/kg, positive control (FIG. 3).
Setting [10] is: 40 mg/kg, time course 15-120 minutes.
Where [11] appears, read: intraperitoneal 20, 40 or 80 mg/kg, 30 minutes after administration, dose-dependent, vs solvent control (FIG. 2).
[12] abbreviates: oral 40 mg/kg, sixty minutes after administration (FIG. 7).

With `N#CN` [Cyanamide, cyanamide (H2 N—CN)], in data set [1] (setting [7]), the anxiolytic-like effect result is reported as “no anxiolytic-like effect”, the “ratio of open arm entries” value is listed as “no significant effects” and the “ratio of time spent in the open arm” value is listed as “no significant effects”.
As to `CCN(CC)C(=S)[S-].CCN(CC)C(=S)[S-].CCN(CC)C(=S)[S-].[Fe+3]` [Fe(DDC)3, diethyldithiocarbamic acid ferric salt], the anxiolytic-like effect entry in data set [1] (intraperitoneal 40 mg/kg, 30 minutes (FIG. 6)) is listed as “confirmed to have an anxiolytic-like effect”. Besides, the sedative effect entry in data set [1] (intraperitoneal 40 mg/kg, 30 minutes, observed in three mice of n=5, no exploration) was “strong sedative effect”. Further, in data set [1] (setting [8]), the “ratio of open arm entries” value is recorded as “significantly increased” and the “ratio of time spent in the open arm” value was “significantly increased”.
For `CN1C(=O)CN=C(c2ccccc2)c2cc(Cl)ccc21` [diazepam, Diazepam], in data set [1] (setting [9]), the “ratio of open arm entries” value is on record as “increased” and the “ratio of time spent in the open arm” value was “increased”.
On to `CCN(CC)C(=S)SSC(=S)N(CC)CC` [disulfiram, tetraethylthiuram disulfide], for which the “ratio of time spent in the open arm” value in data set [1] (40 mg/kg, tested 15, 30, 60 or 120 minutes after administration, increased from 15 minutes (FIG. 4)) is on record as “significantly increased”. Moreover, in data set [1] (setting [10]), the “effect observed till (time after the administration)” value turned out to be 60 min and the “time of peak anxiolytic-like effect” value amounted to 30 min. Besides, in data set [1] (disulfiram 40 mg/kg to 80 mg/kg i.p. compared with diazepam 1.5 mg/kg s.c.), the anxiolytic-like effect entry was “comparable to that of diazepam”. Besides, in data set [1] (setting [11]), the “ratio of open arm entries” value is reported as “significantly increased” and the “ratio of time spent in the open arm” value is “significantly increased”. Moreover, in data set [2], the “time spent exploring the relocated object vs the object remaining at the original location” value was “significantly longer”. The “secretion of sAPPα” value in data set [3] was “promote secretion of sAPPα”. In addition, the “SI time in the presence of the Target vs Non-target” value in data set [4] is listed as “any change in SI time was not observed”. The “hyperemotional response (score)” value in data set [5] (vs control diet group (FIG. 10A)) is given as “significant decreases”. The “hyperactivity (line crossings in 30 seconds)” value in data set [5] (vs control diet group (FIG. 10B)) is given as “significant decreases”. Further, the “distance traveled to find the platform” value in data set [6] (Days 4 and 6, p<0.05 vs control diet (FIG. 9A)) is recorded as “shorter”. Besides, the “time spent for exploring the platform area at the probe trial” value in data set [6] (probe trial on Day 5, p<0.05 vs control diet (FIG. 9B)) was “significantly longer”.
With “copper diethyldithiocarbamate [Cu(DDC)2]”, in data set [1] (setting [12]), the anxiolytic-like effect entry is “confirmed to have an anxiolytic-like effect” and the “ratio of time spent in the open arm” value was “significantly increased”. The “ratio of open arm entries” value in data set [1] (oral 40 mg/kg, sixty minutes after administration, not significantly different (FIG. 7)) is listed as “clear tendency to increase”.

The record behind these values is US12521362B2, “Agent for treating, preventing, or improving psychiatric and nervous system disorders or symptoms” (TOKYO UNIVERSITY OF SCIENCE FOUNDATION, priority 2019, dated 2026).
